Assay results as given in PubChem BioAssay AID977630 (Broad Institute, 2014).
Records with an inconclusive call do not appear. Active and inactive are the calls of the source.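 The calls were made as follows: active = Normal-ribosome green reporter loss at least double humanized-ribosome red reporter loss, with overall culture growth inhibition under a set limit; inconclusive = no clear call, values can overlap the other calls; inactive = the rest.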

Tested on: E. coli wild-type GFP growth, mixed culture, 24 h
Experiment: E. coli growth inhibition, wild-type GFP versus H38 humanized RFP strain – H38 mutant RFP vs wild-type GFP, cherry-pick, dose response (AID 977630)
[1] = E. coli mixed culture total OD600 growth, 24 h

SMILES: Cc1ccsc1C(=O)C1CCCN(Cc2cc(F)ccc2-n2cccn2)C1 (stereo not drawn)
- AC50: > 100 µM (inactive)
- AC50 [1]: > 100 µM

SMILES: CCCC(=O)Nc1sc2c(c1C(=O)Nc1ccccn1)CCCC2
- AC50: > 100 µM (inactive)
- AC50 [1]: > 100 µM

SMILES: CN1CCN(c2nc(Nc3ccc(O)cc3)nc3ccccc23)CC1
- AC50: > 100 µM (inactive)

SMILES: COc1cc(CC(=O)Nc2nc(C)cs2)cc(OC)c1OC
- AC50 [1]: > 100 µM

SMILES: CCc1cccc(NC(=O)c2ccc3c(=O)n4c(nc3c2)CCCCC4)c1
- AC50: > 100 µM (inactive)

SMILES: COC(=O)c1c(NC(=O)CCC(=O)O)sc(Cc2ccccc2)c1C
- AC50: 3.63 µM

SMILES: Cc1ccccc1-n1c([C@@H]2C[C@H]2c2ccccc2)n[nH]c1=S
- AC50: > 100 µM (inactive)

SMILES: CC(=O)N1CCN(c2nc(-c3cccs3)nc3ccccc23)CC1
- AC50: > 100 µM (inactive)

SMILES: O=C(CCNC(=O)c1ccco1)Nc1cccc(Br)c1
- AC50: > 100 µM (inactive)

SMILES: Nc1ccc(C(=O)Nc2ccc3nc(-c4ccncc4)[nH]c3c2)cc1
- AC50 [1]: > 100 µM

SMILES: Cc1ccc(S(=O)(=O)N2CCCCC2C(=O)N2CCN(c3ccccc3F)CC2)cc1 (stereo not drawn)
- AC50 [1]: > 100 µM

SMILES: O=C(Nc1ccc(C(=O)Nc2ccccc2Cl)cc1)c1cccnc1
- AC50: > 100 µM (inactive)

SMILES: Cc1ccc(S(=O)(=O)N2CCOCC2)cc1NC(=O)COc1ccc(-c2nnco2)cc1
- AC50: > 100 µM (inactive)

SMILES: O=C(Nc1ccn(Cc2ccc(Cl)cc2)n1)c1ccccc1
- AC50 [1]: > 100 µM

SMILES: CCOc1ccccc1NC(=O)c1cc(SC)ccc1Cl
- AC50: > 100 µM (inactive)

SMILES: O=c1[nH]c(C2CCN(S(=O)(=O)c3ccc4c(c3)OCCO4)CC2)nc2c1nnn2Cc1ccccc1F
- AC50: > 100 µM (inactive)
- AC50 [1]: > 100 µM

SMILES: COC(=O)c1ccc(OS(=O)(=O)c2ccc(NC(C)=O)cc2)cc1
- AC50: > 100 µM (inactive)
- AC50 [1]: > 100 µM

SMILES: CC(=O)Nc1nc(C)c(-c2csc(Nc3ccccn3)n2)s1
- AC50: > 100 µM (inactive)

SMILES: Nc1nc(Nc2ccccc2F)nc(N2CCOCC2)c1[N+](=O)[O-]
- AC50: > 100 µM (inactive)

SMILES: CCOc1ccc2nc(NC(=O)CSc3nc(SC)ns3)sc2c1
- AC50: > 100 µM (inactive)
- AC50 [1]: > 100 µM

SMILES: Cc1ccc(-n2nc(C)c3c(C)c(CCC(=O)O)c(C)nc32)cc1C
- AC50: > 100 µM (inactive)
- AC50 [1]: > 100 µM

SMILES: CSc1nc2nc3c(cc2c(=O)n1-c1ccccc1C)CCCC3
- AC50: > 100 µM (inactive)
- AC50 [1]: > 100 µM

SMILES: CC1(C)CC2CC(C)(CN2c2ncnc3ccccc23)C1 (stereo not drawn)
- AC50: > 100 µM (inactive)
- AC50 [1]: > 100 µM

SMILES: COc1cccc(NC(=O)CSc2nc3c(sc4ccccc43)c(=O)n2CCN(C)C)c1
- AC50: > 100 µM (inactive)

SMILES: CCc1cc(C(=O)N2CCCC(C(=O)c3cccc4ccccc34)C2)n(C)n1 (stereo not drawn)
- AC50: > 100 µM (inactive)

SMILES: O=C(CCCn1c(=S)[nH]c2ccsc2c1=O)Nc1ccc2c(c1)OCCO2
- AC50: > 100 µM (inactive)
- AC50 [1]: > 100 µM

SMILES: CC(=O)NCCOc1nc(N2CCCCC2)nc(N2CCCCC2)n1
- AC50: > 100 µM (inactive)
- AC50 [1]: > 100 µM

SMILES: COc1ccc2[nH]c3c(=O)n(CCCCC(=O)NCCC(C)C)c(=S)[nH]c3c2c1
- AC50: 2.42 µM
- AC50 [1]: > 100 µM

SMILES: CC(C)(C)c1ccc(-c2noc(CCC(=O)NCc3ccco3)n2)cc1
- AC50: > 100 µM (inactive)

SMILES: Cc1onc(-c2ccccc2Cl)c1C(=O)OCC(=O)c1ccccc1
- AC50 [1]: > 100 µM

SMILES: O=C(Nc1cccnc1)c1ccc([N+](=O)[O-])o1
- AC50: > 100 µM (inactive)

SMILES: CCN(CC)S(=O)(=O)c1ccc(N2CCCC2)c(NC(=O)c2ccccc2OC)c1
- AC50 [1]: > 100 µM

SMILES: COC(=O)c1cc(C(=O)c2c(C)cc3ccccn23)cc([N+](=O)[O-])c1
- AC50 [1]: > 100 µM

SMILES: CC(C)(C)CC(=O)NCCc1csc(-c2ccccc2)n1
- AC50: > 100 µM (inactive)

SMILES: O=C1c2ccccc2CSc2c(O)cccc21
- AC50: > 100 µM (inactive)
- AC50 [1]: 50.8 µM

SMILES: CCCCOc1ccc(-c2nnn(CCC(=O)N3CCOCC3)n2)cc1
- AC50 [1]: > 100 µM

SMILES: C[C@]12CCC(=O)C[C@H]1CC[C@@H]1[C@@H]2CC[C@]2(C)C(=O)CC[C@@H]12
- AC50: > 100 µM (inactive)

SMILES: Cc1ccc(Cl)cc1N1CCN(C(=O)c2ccc3nc[nH]c3c2)CC1
- AC50: > 100 µM (inactive)

SMILES: COc1ccc(OC)c(NC(=O)COC(=O)C2CCN(C(=O)c3ccc(Cl)cc3)CC2)c1
- AC50: > 100 µM (inactive)

SMILES: Cc1cccc(NC(=O)c2c(C)nn(-c3ccccc3)c2Cl)c1
- AC50 [1]: 41.6 µM

SMILES: Cc1ccc2c(N)c(C(=O)c3ccccc3)sc2n1
- AC50 [1]: > 100 µM

SMILES: Cc1cccc(CN2C(=O)c3ccccc3Sc3ccc(C(=O)NCCN4CCOCC4)cc32)c1
- AC50 [1]: > 100 µM

SMILES: COc1ccc(-c2csc(NC(=O)c3ccccc3S(C)(=O)=O)n2)cc1
- AC50 [1]: > 100 µM

SMILES: CC1CCN(C(=O)COC(=O)c2ccccc2NC(=O)c2ccco2)CC1
- AC50: > 100 µM (inactive)

SMILES: Cc1ccc(NC(=O)c2ccc([N+](=O)[O-])o2)c(C)c1
- AC50: > 100 µM (inactive)

SMILES: CCN(c1ccccc1)S(=O)(=O)c1ccc(Cl)c(NC(=O)CSc2n[nH]c(N)n2)c1
- AC50: > 100 µM (inactive)
- AC50 [1]: > 100 µM

SMILES: CCOc1ncccc1C(=O)OCC(=O)NCCCc1ccccc1
- AC50: > 100 µM (inactive)

SMILES: CCCCn1c(NS(=O)(=O)c2ccc(C)cc2)c(C(=O)OCC)c2nc3ccccc3nc21
- AC50: > 100 µM (inactive)
- AC50 [1]: > 100 µM

SMILES: Cc1nn(C(C)(C)C)c(OC(=O)CC(C)C)c1S(=O)(=O)c1ccccc1
- AC50: > 100 µM (inactive)

SMILES: Oc1c(Br)cc(Br)cc1Br
- AC50: > 100 µM (inactive)

SMILES: CC(=O)Nc1ccc(OCC(=O)N2CCC(Cc3ccccc3)CC2)cc1
- AC50: > 100 µM (inactive)

SMILES: Cc1ccc(NS(=O)(=O)c2ccc3c(c2)CCC(=O)N3)cc1C
- AC50: > 100 µM (inactive)

SMILES: CCS(=O)(=O)N1CCN(c2ccnc3cc(Cl)ccc23)CC1
- AC50: > 100 µM (inactive)
- AC50 [1]: > 100 µM

SMILES: CCOC(=O)C1(CCCc2ccccc2)CCN(C(=O)CCn2cncn2)CC1
- AC50: > 100 µM (inactive)

SMILES: O=C(Nc1ccc(Br)cc1)c1cccnc1N1CCCCC1
- AC50 [1]: > 100 µM

SMILES: CC(=O)N(CCC1(c2ccc(C)cc2)CCOC(C(C)C)C1)Cc1ccco1 (stereo not drawn)
- AC50: > 100 µM (inactive)

SMILES: O=S(=O)(c1ccccc1)N1CCN=C1SCc1cccc(Cl)c1
- AC50: > 100 µM (inactive)
- AC50 [1]: > 100 µM

SMILES: Cc1nonc1C1CCCN1C(=O)c1cc(COc2ccc(F)cc2F)on1 (stereo not drawn)
- AC50: > 100 µM (inactive)

SMILES: CCN(c1ccccc1)S(=O)(=O)c1ccc(OC)c(NC(=O)C2CC(=O)N(Cc3ccccc3)C2)c1 (stereo not drawn)
- AC50: > 100 µM (inactive)

SMILES: CC1CCCN(C(=O)C(C)Nc2cc(Cl)ccc2N2CCOCC2)C1 (stereo not drawn)
- AC50: > 100 µM (inactive)

SMILES: CCOC(=O)C(CC)Sc1cc(C)nc2ccc(OC)cc12 (stereo not drawn)
- AC50 [1]: > 100 µM

SMILES: O=[N+]([O-])c1ccccc1Oc1ccc(Cl)c2cccnc12
- AC50: > 100 µM (inactive)

SMILES: CC(C)(CC(=O)O)CC(=O)NCc1c(Cl)cccc1Sc1ccc(Cl)cc1
- AC50: > 100 µM (inactive)

SMILES: CC(=O)N1CCOc2ccc(S(=O)(=O)N(C)c3ccc(C)cc3)cc21
- AC50: > 100 µM (inactive)

SMILES: CN(CCOc1ccccc1)S(=O)(=O)c1ccccc1C#N
- AC50: > 100 µM (inactive)

SMILES: COc1ccc(CSc2nc3ccccc3c(=O)n2CCCN2CCOCC2)cc1F
- AC50: > 100 µM (inactive)

SMILES: O=C(NCCc1csc(-c2ccccc2)n1)c1ccccc1F
- AC50: > 100 µM (inactive)

SMILES: O=C(Nc1ccccc1N1CCN(C(=O)c2ccccc2)CC1)c1ccc([N+](=O)[O-])o1
- AC50: > 100 µM (inactive)

SMILES: CC1CCCN(c2ccc(C(=O)NCCc3ccccc3)cn2)C1 (stereo not drawn)
- AC50: > 100 µM (inactive)
- AC50 [1]: > 100 µM

SMILES: COCC(C)NC(=O)c1nn(Cc2ccccc2)c(=O)c2ccccc12 (stereo not drawn)
- AC50: > 100 µM (inactive)
- AC50 [1]: > 100 µM

SMILES: CN(C)CCCN(C(=O)CCSc1ccccc1)c1nc2cc3c(cc2s1)OCO3
- AC50: > 100 µM (inactive)

SMILES: CCN(CC(=O)Nc1cccc(C#N)c1)CC(=O)Nc1cccc(OC)c1
- AC50: > 100 µM (inactive)

SMILES: COc1ccc(C(NC(=O)C2CCN(CCOc3ccc(Cl)cc3Cl)CC2)c2ccccc2C)cn1 (stereo not drawn)
- AC50 [1]: > 100 µM

SMILES: CCOC(=O)c1c(C)[nH]c(C)c1S(=O)(=O)NCCN1CCN(c2ccccc2F)CC1
- AC50 [1]: > 100 µM

SMILES: COc1ccc2nc(SCC(=O)Nc3ccccc3)[nH]c2c1
- AC50: > 100 µM (inactive)
- AC50 [1]: > 100 µM

SMILES: O=C(O)c1ccc2c(c1)N(Cc1ccccc1)C(=O)c1ccccc1S2
- AC50: > 100 µM (inactive)
- AC50 [1]: > 100 µM

SMILES: O=C(c1cccs1)c1c[nH]cc1-c1ccccc1
- AC50 [1]: > 100 µM

SMILES: O=c1[nH]c(C2CCCN(S(=O)(=O)c3ccccc3Cl)C2)nc2c1nnn2Cc1ccc2c(c1)OCCO2 (stereo not drawn)
- AC50: > 100 µM (inactive)
- AC50 [1]: > 100 µM

SMILES: CC(C)(C)C1CCC(C(=O)OCC(=O)N2CCN(C(=O)c3ccco3)CC2)CC1 (stereo not drawn)
- AC50: > 100 µM (inactive)

SMILES: Brc1ccc(Nc2ncnc3[nH]ncc23)cc1
- AC50: > 100 µM (inactive)

SMILES: C=CCNC(=O)c1ccccc1CCc1ccccc1
- AC50: > 100 µM (inactive)

SMILES: COc1ccccc1Cc1c(-c2ccc(F)cc2)nc2ccc(Br)cn12
- AC50: > 100 µM (inactive)

SMILES: COC(=O)c1sccc1NC(=O)CNC(=O)c1ccccc1
- AC50 [1]: > 100 µM

SMILES: COc1cccc(CNC(=O)CCSCc2ccccc2F)c1
- AC50: > 100 µM (inactive)
- AC50 [1]: > 100 µM

SMILES: C[C@@H]1CCCCO[C@H](CN(C)C(=O)CCCN(C)C)[C@H](C)CN([C@@H](C)CO)C(=O)c2cc(NC(=O)Nc3cccc4ccccc34)ccc2O1
- AC50 [1]: > 100 µM

SMILES: CCOc1cccc(-c2cc(-c3n[nH]c(=S)n3CC)c3ccccc3n2)c1
- AC50: > 100 µM (inactive)

SMILES: O=C(Nc1cccc(Oc2ccc3c(c2)C(=O)NC3=O)c1)c1cccs1
- AC50: > 100 µM (inactive)

SMILES: CNC(=O)c1ccsc1NC(=O)c1ccc(S(=O)(=O)N2CCc3ccccc32)cc1
- AC50 [1]: > 100 µM

SMILES: COC(=O)c1cc2c(c3c4cc(F)ccc4n(S(=O)(=O)c4ccccc4)c13)C(=O)N(Cc1ccco1)C2
- AC50: > 100 µM (inactive)

SMILES: CC1Cc2ccccc2N1C(=O)CN1C(=O)NC(C)(CCc2ccccc2)C1=O (stereo not drawn)
- AC50 [1]: > 100 µM

SMILES: O=C(NCCCCc1ccccc1)c1cccc(NC(=O)C2CCCCC2)c1
- AC50: > 100 µM (inactive)
- AC50 [1]: > 100 µM

SMILES: CCN(CC)CCNC(=O)c1cc2cc3ccc(OC)cc3nc2o1
- AC50: > 100 µM (inactive)

SMILES: CN1OC[C@@H]2CN(C(=O)c3ccco3)[C@H](c3ccc(-c4ccc(C#N)cc4)cc3)C[C@@H]21
- AC50 [1]: > 100 µM

SMILES: Nc1[nH]c(C(=O)c2ccccc2)c(-c2ccc(Cl)cc2)c1C(=O)NCCc1c[nH]c2ccccc12
- AC50: > 100 µM (inactive)
- AC50 [1]: > 100 µM
